Consider 26 compounds from patent US11731965B2, “Tetrahydroprotoberberine compound, preparation method therefor and uses thereof, and pharmaceutical composition” (SHANGHAI INSTITUTE OF MATERIA MEDICA, CHINESE ACADEMY OF …, priority 2017, dated 2023).

Where a name gives a salt, the structure may show the parent alone.

In assay [1] the target is T1, human recombinant D2 receptor (Homo sapiens, UniProt P14416).
T1 construct: expressed in transfected cells; host or cells: HEK293
The assay can be described thus: D2 antagonistic activity test (LANCE cAMP, antagonism of dopamine inhibition of cAMP production in HEK293 cells). In kind it is cell-based. Particulars: HEK293 cells expressing human recombinant D2 receptor; test concentration 0.1 nM to 10000 nM; read-out: D2 Antagonistic Activity (IC50, nmol/L). The protocol: LANCE™ cAMP 384 Kit (PerkinElmer, USA) was used to test the antagonism of the compound against the D1 receptor using the HEK293 cells expressing human recombinant D1 receptor. The D1 antagonism of the compound was evaluated by testing the antagonistic action of the compounds against dopamine on the induction of cAMP production in HEK293 cells. The cAMP concentration test was performed according to the method described in the kit instructions. The test concentration of the compound was 0.1 nM to 10000 nM. SCH23390 was used as a positive control. The IC50 was calculated by Excelfit software. The test results of some compounds were shown in Table 1. • 2) D2 antagonistic activity test LANCE™ cAMP 384 Kit (PerkinElmer, USA) was used to test the antagonism of the compound against the D2 receptor using the HEK293 cells expressing human recombinant D2 receptor. The D2 antagonism of the compound was evaluated by testing the antagonistic action of the compounds against dopamine on the inhibition of cAMP production in HEK293 cells. The cAMP concentration test was performed according to the method described in the kit instructions. The test concentration of the compound was 0.1 nM to 10000 nM. Risperidone was used as a positive control. The IC50 was calculated by Excelfit software. The test results of some compounds were shown in Table 1 (ND means the test was not performed).

Assay [2] deals with PCP-induced high spontaneous activity in mice. Put plainly: PCP-induced high spontaneous activity test in mice. Type of assay: in vivo, Male ICR mice. To be noted: dose by gavage that significantly reduces PCP (7 mg/kg ip) induced high spontaneous activity of mice vs model group. The protocol:
PCP (phencylidine) was dissolved in physiological saline to prepare a 7 mg/kg solution. The test compound was formulated with a 0.5% CMC-Na solution to a solution with suitable concentration, ready-to-use. Male ICR mice were 18-22 g. Mice were randomly divided into a solvent control group, a model control group, a positive control group, and each test drug group during the test. There were 8 mice in each group. Mice in each group were given each test drug by gavage. 45 minutes after the test drug was administered, mice were injected with a PCP (7 mg/kg) solution intraperitoneally. The spontaneous, open field video analysis system was used to record the mouse movement trajectory within 45 min after administration of test drug or saline, and then the mouse movement trajectory within 75 min after PCP administration. Spontaneous, open field video analysis system was used to analyze the mouse's movement trajectory, and the total distance of the movement of the mice in each group was counted. The result was expressed as mean±SD. Results were analyzed by one-way analysis of variance.

Assay [3] deals with T2, human recombinant D1 receptor (Homo sapiens, UniProt P21728).
T2 construct: expressed in transfected cells; host or cells: HEK293
Put plainly: D1 antagonistic activity test (LANCE cAMP, antagonism of dopamine-induced cAMP production in HEK293 cells). Particulars: HEK293 cells expressing human recombinant D1 receptor; test concentration 0.1 nM to 10000 nM; read-out: D1 Antagonistic Activity (IC50, nmol/L). Type of assay: cell-based. The protocol:
• 1) D1 antagonistic activity test
The D1 antagonism of the compound was evaluated by testing the antagonistic action of the compounds against dopamine on the induction of cAMP production in HEK293 cells. The cAMP concentration test was performed according to the method described in the kit instructions. The test concentration of the compound was 0.1 nM to 10000 nM. SCH23390 was used as a positive control. The IC50 was calculated by Excelfit software.

T2 sequence (P21728 whole entry): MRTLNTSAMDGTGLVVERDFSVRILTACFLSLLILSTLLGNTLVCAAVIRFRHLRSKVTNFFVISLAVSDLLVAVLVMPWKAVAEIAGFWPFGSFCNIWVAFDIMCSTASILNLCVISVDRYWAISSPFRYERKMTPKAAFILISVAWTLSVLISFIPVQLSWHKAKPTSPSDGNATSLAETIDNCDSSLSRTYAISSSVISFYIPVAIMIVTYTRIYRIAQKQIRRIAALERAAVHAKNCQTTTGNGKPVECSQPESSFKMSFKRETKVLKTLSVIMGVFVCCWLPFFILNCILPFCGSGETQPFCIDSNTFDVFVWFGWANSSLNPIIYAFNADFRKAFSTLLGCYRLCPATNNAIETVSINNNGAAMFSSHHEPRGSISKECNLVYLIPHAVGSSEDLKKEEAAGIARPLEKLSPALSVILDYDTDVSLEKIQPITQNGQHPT
T1 sequence (P14416 whole entry): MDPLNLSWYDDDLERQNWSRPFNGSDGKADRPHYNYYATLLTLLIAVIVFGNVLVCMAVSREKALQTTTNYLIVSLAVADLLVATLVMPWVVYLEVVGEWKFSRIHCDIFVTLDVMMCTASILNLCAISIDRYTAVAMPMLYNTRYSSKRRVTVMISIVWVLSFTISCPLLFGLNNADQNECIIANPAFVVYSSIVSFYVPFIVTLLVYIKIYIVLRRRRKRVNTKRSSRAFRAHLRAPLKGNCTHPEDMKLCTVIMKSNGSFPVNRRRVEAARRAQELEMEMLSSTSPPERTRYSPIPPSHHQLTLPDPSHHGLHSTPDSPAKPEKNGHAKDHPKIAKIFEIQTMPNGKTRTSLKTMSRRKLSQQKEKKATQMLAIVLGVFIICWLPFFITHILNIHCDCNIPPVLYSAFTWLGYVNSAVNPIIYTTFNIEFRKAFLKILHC

Take `COc1ccc2c(c1OC)CN1CCc3cc(OC)c4[nH]c(=S)[nH]c4c3[C@@H]1C2` [Example 41, (S)-4,10,11-trimethoxy-3,6,7,9,14,14a-Hexahydroimidazo[4,5-h] isoquinolino [3,2-a]isoquinoline-2(1H)-thione]: the IC50 in assay [1] came to 20 nmol/L. For the same compound, the “Effective Dose” value in assay [2] was found to be 3 mg/kg. As to `COc1cc2c(cc1C#N)[C@@H]1Cc3ccc(OC)c(OC)c3CN1CC2` [Example 4, (S)-2-cyano-3,9,10-trimethoxy-6,8,13,13a-tetrahydro-5H-dibenzo [a,g] quinolizine], the IC50 in assay [1] was determined as 950 nmol/L; in assay [3], 310 nmol/L. On to `COc1cc2c(cc1N)[C@@H]1Cc3ccc(N)c(OC)c3CN1CC2` [Example 33, (S)-2,10-diamino-3,9-dimethoxy-6,8,13,13a-tetrahydro-5H-dibenzo [a,g] quinolizine], for which the IC50 is 440 nmol/L in assay [1] and 270 nmol/L in assay [3]. Also, the “Effective Dose” value in assay [2] is given as 20 mg/kg. As to `COc1cc2c(cc1OC(F)F)[C@@H]1Cc3ccc(OC)c(OC)c3CN1CC2` [Example 51, (S)-2-(difluoromethoxy)-3,9,10-trimethoxy-6,8,13,13a-tetrahydro-5H-dibenzo[a,g] quinolizine], in assay [1], the IC50 turned out to be 390 nmol/L. With `COc1cc2c(cc1OC)[C@@H]1Cc3ccc(C)c(OC)c3CN1CC2` [Example 26, (S)-2,3,9-trimethoxy-10-methyl-6,8,13,13a-tetrahydro-5H-dibenzo [a,g] quinolizine], the IC50 in assay [1] was found to be 940 nmol/L.

As to `COc1cc2c(cc1C=O)[C@@H]1Cc3ccc(OC)c(OC)c3CN1CC2` [Example 6, (S)-2-formyl-3,9,10-trimethoxy-6,8,13,13a-tetrahydro-5H-dibenzo[a,g] quinolizine], the IC50 in assay [1] stood at 210 nmol/L; in assay [3] it was 49 nmol/L. `COc1cc2c(cc1Br)[C@@H]1Cc3ccc(OC)c(OC)c3CN1CC2` [Example 15, (S)-2-bromo-3,9,10-tritmethoxy-6,8,13,13a-tetrahydro-5H-dibenzo [a,g] quinolizine]: the IC50 in assay [1] was 550 nmol/L; in assay [3] it was 120 nmol/L. As to `COc1cc2c(cc1OC)[C@@H]1Cc3ccc(OC)c(C#N)c3CN1CC2` [Example 19, (S)-2,3,10-trimethoxy-9-cyano-6,8,13,13a-tetrahydro-5H-dibenzo [a,g] quinolizine], in assay [3], the IC50 worked out at 1300 nmol/L. For the same compound, the “Effective Dose” value in assay [2] is given as 20 mg/kg. As for `COc1ccc2c(c1OC)CN1CCc3cc4ncoc4cc3C1C2` (stereo not drawn) [Example 45, 9,10-Dimethoxy-6,8,13,13a-tetrahydro-5H-isoquinolino[3,2-a] oxazolo[4,5-g]isoquinoline], the IC50 in assay [3] came to 116 nmol/L. In the case of `COc1cc2c(cc1OC)[C@@H]1Cc3ccc(OC)c(CO)c3CN1CC2` [Example 25, (S)-2,3,10-trimethoxy-9-hydroxymethyl-6,8,13,13a-tetrahydro-5H-dibenzo[a,g] quinolizine], the figures for the IC50 in assay [1] and in assay [3] were 2300 nmol/L and 1700 nmol/L, respectively. In addition, in assay [2], the “Effective Dose” value was 20 mg/kg. `COc1cc2c(cc1N)[C@@H]1Cc3ccc(OC)c(OC)c3CN1CC2` [Example 13, (S)-2-amino-3,9,10-trimethoxy-6,8,13,13a-tetrahydro-5H-dibenzo [a,g] quinolizine hydrochloride]: the IC50 in assay [1] turned out to be 280 nmol/L; in assay [3], 140 nmol/L. Further, in assay [2], the “Effective Dose” value was 10 mg/kg. Take `COc1cc2c(cc1OC)[C@@H]1Cc3ccc(CO)c(OC)c3CN1CC2` [Example 30, (S)-2,3,9-trimethoxy-10-hydroxymethyl-6,8,13,13a-tetrahydro-5H-dibenzo[a,g] quinolizine]: the IC50 in assay [1] stood at 510 nmol/L; in assay [3] it was 1080 nmol/L. Turning to `COc1cc2c(cc1OC)[C@@H]1Cc3ccc(CNC(C)=O)c(OC)c3CN1CC2` [Example 32, (S)-2,3,9-trimethoxy-10-acetaminomethyl-6,8,13,13a-tetrahydro-5H-dibenzo[a,g] quinolizine], in assay [1], the IC50 turned out to be 663 nmol/L. `COc1cc2c(cc1OCCO)[C@@H]1Cc3ccc(OCCO)c(OC)c3CN1CC2` [Example 55, (S)-2,10-di(hydroxyethoxy)-3,9-dimethoxy-6,8,13,13a-tetrahydro-5H-dibenzo [a,g] quinolizine]: the IC50 in assay [3] was determined as 443 nmol/L. Consider `COc1cc2c(cc1OC1CC1)[C@@H]1Cc3ccc(OC)c(OC)c3CN1CC2` [Example 53, (S)-2-cyclopropoxy-3,9,10-trimethoxy-6,8,13,13a-tetrahydro-5H-dibenzo[a,g] quinolizine hydrochloride], for which the IC50 in assay [1] was 1300 nmol/L; in assay [3], 960 nmol/L. Also, the “Effective Dose” value in assay [2] worked out at 20 mg/kg. On to `COc1ccc2c(c1OC)CN1CCc3cc4c(cc3C1C2)OCC(=O)N4` (stereo not drawn) [Example 47, 10,11-Dimethoxy-4,6,7,9,14,14a-Hexahydroisoquinolino[3,2-a][1,4] oxazino[3,2-g]isoquinoline-3(2H)-one], for which the IC50 in assay [1] is 146 nmol/L; in assay [3], 19.9 nmol/L. Also, in assay [2], the “Effective Dose” value stood at 10 mg/kg. Regarding `COc1cc2c(cc1OC)[C@@H]1Cc3ccc(OC)c(C=O)c3CN1CC2` [Example 24, (S)-2,3,10-trimethoxy-9-formyl-6,8,13,13a-tetrahydro-5H-dibenzo [a,g] quinolizine], the IC50 in assay [3] stood at 1300 nmol/L. For `COc1ccc2c(c1OC)CN1CCc3cc(OC)c4nc[nH]c4c3[C@@H]1C2` [Example 42, (S)-4,10,11-trimethoxy-1,6,7,9,14,14a-hexahydroimidazo[4,5-h] isoquinolino[3,2-a]isoquinoline], the figures for the IC50 in assay [1] and in assay [3] were 291 nmol/L and 31.1 nmol/L, respectively. Also, in assay [2], the “Effective Dose” value was found to be 10 mg/kg. For `COc1ccc2c(c1OC)CN1CCc3ccc4oc(=O)[nH]c4c3C1C2` (stereo not drawn) [Example 49, 10,11-Dimethoxy-6,7,14,14a-tetrahydro-1H-isoquinolino[3,2-a] oxazolo[5,4-h] isoquinoline-2 (9H)-one], the IC50 in assay [3] stood at 219 nmol/L. For the same compound, the “Effective Dose” value in assay [2] came out at 10 mg/kg. Turning to `COc1ccc2c(c1OC)CN1CCc3cc4nc[nH]c4cc3C1C2` (stereo not drawn) [Example 44, 9,10-Dimethoxy-1,5,6,8,13,13a-hexahydroimidazo[4,5-g]isoquinolino [3,2-a]isoquinoline], the IC50 in assay [1] was found to be 139 nmol/L; in assay [3] it was 672 nmol/L. On to `CCCc1cc2c(cc1OC)CCN1Cc3c(ccc(OC)c3OC)C[C@@H]21` [Example 2, (S)-2-n-propyl-3,9,10-trimethoxy-6,8,13,13a-tetrahydro-5H-dibenzo [a,g] quinolizine], for which, in assay [1], the IC50 was found to be 280 nmol/L. Further, the “Effective Dose” value in assay [2] amounted to 20 mg/kg. On to `COc1cc2c(cc1OC)[C@@H]1Cc3ccc(C(N)=O)c(OC)c3CN1CC2` [Example 28, (S)-2,3,9-trimethoxy-10-carbamoyl-6,8,13,13a-tetrahydro-5H-dibenzo[a,g] quinolizine], for which the IC50 in assay [3] is 2160 nmol/L. Regarding `COc1ccc2c(c1OC)CN1CCc3ccc4c(c3C1C2)NC(=O)CO4` (stereo not drawn) [Example 50, 11,12-Dimethoxy-3,7,8,10,15,15a-hexahydroisoquinolino[3,2-a][1,4] oxazino [2,3-h]isoquinoline-2(1H)-one], in assay [3], the IC50 turned out to be 855 nmol/L. For the same compound, the “Effective Dose” value in assay [2] is 10 mg/kg.

For `COc1cc2c(cc1NC(C)=O)[C@@H]1Cc3ccc(NC(C)=O)c(OC)c3CN1CC2` [Example 34, (S)-2,10-di(acetamino)-3,9-dimethoxy-6,8,13,13a-tetrahydro-5H-dibenzo[a,g] quinolizine], the “Effective Dose” value in assay [2] worked out at 20 mg/kg. On to `COc1cc2c(cc1OC)[C@@H]1Cc3ccc(C=O)c(OC)c3CN1CC2` [Example 29, (S)-2,3,9-trimethoxy-10-formyl-6,8,13,13a-tetrahydro-5H-dibenzo [a,g] quinolizine], for which the IC50 in assay [1] is 2500 nmol/L. As to `COc1ccc2c(c1OC)CN1CCc3cc(OC)c4nn[nH]c4c3[C@@H]1C2` [Example 43, (S)-4,10,11-trimethoxy-1,6,7,9,14,14a-hexahydroisoquinolino[3,2-a] [1,2,3]triazolo[4,5-h]isoquinoline], the IC50 in assay [1] worked out at 54 nmol/L.
